Laboratory results taken from PMC5041162, “Chemistry and Molecular Dynamics Simulations of Heme b-HemQ and Coproheme-HemQ” (Biochemistry, 2016).

Columns and labels:
[1] = tested on: SaHemQ; type: binding, Staphylococcus aureus
Experimental: Differential scanning calorimetry (DSC) measurements were performed using a VP-capillary DSC microcalorimeter from Microcal with a cell volume of 137 μL. The measurements were controlled by the VP-viewer program, and the instrument was equipped with an autosampler for 96-well plates. Samples were analyzed using a programmed heating scan rate of 60 °C h^–1 over a temperature range from 20 to 100 °C, and the cell pressure was approximately 60 psi (4.136 bar). DSC thermograms were corrected for buffer baseline and protein concentration. Apo-, heme b-, or coproheme-LmHemQ and SaHemQ (5 μM each) in 50 mM phosphate buffer (pH 7.0) were used for each measurement. For data analysis and conversion, the Microcal origin software was used. Heat capacity (Cp) was expressed in kilocalories per mole per kelvin. Data points were fitted to non-two-state equilibrium unfolding models by the Lavenberg–Marquardt (LM) nonlinear least-squares method.

[2] = tested on: apo-SaHemQ and apo-LmHemQ; type: binding, S. aureus and L. monocytogenes
Experimental: (§1) Time-resolved binding of coproheme to apo-HemQ was monitored using a stopped-flow apparatus equipped with a diode array detector (model SX-18MV, Applied Photophysics), in the conventional mode. […] The fastest mixing time was 1 ms. […]. Experiments were conducted in 50 mM phosphate buffer (pH 7.0). Reactions were simulated, and rates were estimated using Pro-Kineticists software (Applied Photophysics). The apparent second-order rate constants, kon, were obtained from the slope of a plot of kobs versus coproheme concentration.

[3] = target: T1, apo-LmHemQ (HemQ from Listeria monocytogenes) (Listeria monocytogenes serovar 1/2a, UniProt Q8Y5F1); type: binding; conditions: pH 7
T1 construct: made in house; host or cells: Escherichia coli
Experimental: as §1

[4] = target: T2, apo-SaHemQ (HemQ from Staphylococcus aureus) (Staphylococcus aureus, UniProt A6QEP0); type: binding; conditions: pH 7
T2 construct: poly-His (C); made in house; host or cells: Escherichia coli BL21(DE3)pLysS
Experimental: as §1

[5] = target: apo-myoglobin; conditions: cited from earlier work

T1 sequence (Q8Y5F1 whole entry): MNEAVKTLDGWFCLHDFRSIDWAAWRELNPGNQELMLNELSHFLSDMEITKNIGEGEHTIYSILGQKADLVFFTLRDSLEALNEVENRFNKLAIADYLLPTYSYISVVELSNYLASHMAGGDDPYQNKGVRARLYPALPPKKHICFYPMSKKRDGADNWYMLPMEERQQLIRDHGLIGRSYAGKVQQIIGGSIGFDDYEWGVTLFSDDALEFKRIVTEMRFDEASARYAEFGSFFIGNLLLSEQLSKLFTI
T2 sequence (A6QEP0 whole entry): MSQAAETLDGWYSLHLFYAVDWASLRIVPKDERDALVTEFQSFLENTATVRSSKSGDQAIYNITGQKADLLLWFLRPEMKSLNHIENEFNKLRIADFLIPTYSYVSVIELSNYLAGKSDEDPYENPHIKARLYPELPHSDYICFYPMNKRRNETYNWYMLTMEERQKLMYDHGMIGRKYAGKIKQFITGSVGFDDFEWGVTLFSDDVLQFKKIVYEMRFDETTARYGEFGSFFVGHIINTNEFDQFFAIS

Row | Structure (SMILES) | increase of Tm when coproheme binds [1] | rate of coproheme binding, fast phase [2] | kon, binding of coproheme to apo-HemQ, first (fast) phase [3] | kon, binding of coproheme to apo-HemQ, second (slow) phase [3] | kon, binding of coproheme to apo-HemQ, first (fast) phase [4] | kon, binding of coproheme to apo-HemQ, second (slow) phase [4] | KD of the prosthetic group to apo-myoglobin [5]
1 | CC1=C(CCC(=O)O)c2cc3[n-]c(cc4nc(cc5[n-]c(cc1n2)c(CCC(=O)O)c5C)C(C)=C4CCC(=O)O)c(CCC(=O)O)c3C.[Fe] [coproheme, iron coproporphyrin III] | 14 °C | 1.5–2 × 10^8 M^–1 s^–1 | ~1.5 × 10^8 M^–1 s^–1 | 2.2 × 10^6 M^–1 s^–1 | ~2.0 × 10^8 M^–1 s^–1 | 3.7 × 10^6 M^–1 s^–1 | 
2 | C=CC1=C(C)c2cc3[n-]c(cc4nc(cc5[n-]c(cc1n2)c(C)c5CCC(=O)O)C(CCC(=O)O)=C4C)c(C)c3C=C.[Fe+3] [hemin] |  |  |  |  |  |  | low nanomolar range
